Measured values published in US4278678A, “Substituted oxy-cyclohexylacetic acid derivatives” (Kaken Chemical Co., Ltd., priority 1978, dated 1981).
Read-outs that look alike come from different tables or passages of the source.

Assays:
[1] = system: rats with dietary hyperlipidemia; test: The antihyperlipidemic activity in rats with dietary hyperlipidemia (Test 1); format: in vivo, Wister type male rats; conditions: Rattus norvegicus, cholesterol diet, 100 mg/kg oral once daily for 4 days, 24 hours after administration
Description: The antihyperlipidemic activity in rats with dietary hyperlipidemia.
In the tests, Wister type male rats (weight: 140 g) were used in groups of 6 each.
A feed containing 2% of cholesterol, 1% of sodium cholate and 5% of coconut oil was given for 4 days to cause hyperlipidemia.
Each active ingredient was suspended in a 1% aqueous solution of Tween 80 (® polyoxyethylene sorbitane monoalkylate) and the suspension was orally administered in a dose of 100 mg/kg once daily for 4 days starting with the supply of the cholesterol supplemented diet.
After 24 hours from the administration, blood was sampled and the concentration of total cholesterols in blood-plasma was measured by the method described in Clinical chemistry Vol. 22 page 393 (1968) and the concentration of triglyceride (neutral fat) was measured by Fletcher method (Clinica Chimica Acta) Vol. 10 page 451 (1964).
As the active ingredients, the compounds of the invention shown in Table and ethyl-α-(p-chlorophenoxy)-isobutylate having the formula [drawing 25] were used.

[2] = acute toxicity tests in mice (Test 2); conditions: mouse, in vivo; male mice, oral, in olive oil; mortality after 72 hours, area method
Description: In the acute toxicity tests, male mice (weight: 22 to 25 g) were used in groups of 10 each.
Each active ingredient was dissolved in olive oil and the solution was orally administrated in a volume corresponding to the body weight.
LD50 was calculated by the area method from the mortal percent after 72 hours from the administration.

[3] = total cholesterol in blood-plasma, read-out: Antihypertipidemic activity (%) Cholesterol
[4] = triglyceride (neutral fat), Fletcher method, read-out: Antihypertipidemic activity (%) Triglyceride

With CCOC(=O)C(Oc1ccc(-c2ccccc2)cc1)C1CCCCC1 (stereo not drawn) [Compound 6, Ethyl α-(p-phenylphenoxy)α-cyclohexylacetate] the inhibition in vivo at 100 mg/kg [1, 3] was 52.3%, the inhibition in vivo at 100 mg/kg [1, 4] was 44% and the LD50 at 72 h [2] was > 3000 mg/kg.
With CCOC(=O)C(Oc1ccc(Oc2ccccc2)cc1)C1CCCCC1 (stereo not drawn) [Compound 16, ethyl α-(p-phenoxyphenoxy)α-cyclohexylacetate] the inhibition in vivo at 100 mg/kg [1, 3] was 40.8%, the inhibition in vivo at 100 mg/kg [1, 4] was 38.7% and the LD50 at 72 h [2] was > 3000 mg/kg.
With CCOC(=O)C(Oc1cccc(C)c1)C1CCCCC1 (stereo not drawn) [Compound 13] the inhibition in vivo at 100 mg/kg [1, 3] was 7.9%, the inhibition in vivo at 100 mg/kg [1, 4] was 59.7% and the LD50 at 72 h [2] was > 3000 mg/kg.
CCOC(=O)C(Oc1ccc(Cl)c2ccccc12)C1CCCCC1 (stereo not drawn) [Compound 15] gave an inhibition in vivo at 100 mg/kg [1, 3] of 0%, an inhibition in vivo at 100 mg/kg [1, 4] of 53% and an LD50 at 72 h [2] of 2500 mg/kg.
For CCOC(=O)C(Oc1cccnc1)C1CCCCC1 (stereo not drawn) [Compound 2], the inhibition in vivo at 100 mg/kg [1, 3] was 0%, the inhibition in vivo at 100 mg/kg [1, 4] was 45% and the LD50 at 72 h [2] was 2500 mg/kg.
In the case of CCOC(=O)C(Oc1ccc(OC)cc1)C1CCCCC1 (stereo not drawn) [Compound 5], the inhibition in vivo at 100 mg/kg [1, 3] is reported as 39%, the inhibition in vivo at 100 mg/kg [1, 4] is reported as 8.9% and the LD50 at 72 h [2] is reported as > 3000 mg/kg.
For CCOC(=O)C(Oc1c(C)cccc1C)C1CCCCC1 (stereo not drawn) [Compound 4], the inhibition in vivo at 100 mg/kg [1, 3] was 38.5%, the inhibition in vivo at 100 mg/kg [1, 4] was 0% and the LD50 at 72 h [2] was > 3000 mg/kg.
For O=C(O)C(Oc1ccc(C2CCCCC2)cc1)C1CCCCC1 (stereo not drawn) [Compound 19, α-(p-cyclohexylphenoxy)α-cyclohexylacetic acid], the inhibition in vivo at 100 mg/kg [1, 3] was 35.8%, the inhibition in vivo at 100 mg/kg [1, 4] was 32.4% and the LD50 at 72 h [2] was > 3000 mg/kg.
For CCOC(=O)C(Oc1ccc(CC)cc1)C1CCCCC1 (stereo not drawn) [Compound 14, Ethyl α-(p-ethylphenoxy)α-cyclohexylacetate], the inhibition in vivo at 100 mg/kg [1, 3] was 42.6%, the inhibition in vivo at 100 mg/kg [1, 4] was 64.8% and the LD50 at 72 h [2] was > 3000 mg/kg.
CCOC(=O)C(Oc1ccc2c(c1)CCCC2)C1CCCCC1 (stereo not drawn) [Compound 10, Ethyl α-(5,6,7,8-tetrahydro-2-naphthoxy)-α-cyclohexylacetate] gave an inhibition in vivo at 100 mg/kg [1, 3] of 52.1%, an inhibition in vivo at 100 mg/kg [1, 4] of 44.4% and an LD50 at 72 h [2] of 2500 mg/kg.
For CCOC(=O)C(Oc1cccc(C(F)(F)F)c1)C1CCCCC1 (stereo not drawn) [Compound 1], the inhibition in vivo at 100 mg/kg [1, 3] was 12.1%, the inhibition in vivo at 100 mg/kg [1, 4] was 49.3% and the LD50 at 72 h [2] was 2500 mg/kg.
For CCOC(=O)C(Oc1ccc(C(C)CC)cc1)C1CCCCC1 (stereo not drawn) [Compound 8], the inhibition in vivo at 100 mg/kg [1, 3] was 36.7%, the inhibition in vivo at 100 mg/kg [1, 4] was 17.1% and the LD50 at 72 h [2] was > 3000 mg/kg.
In the case of CCOC(=O)C(Oc1ccc(Oc2ccc(Cl)cc2)cc1)C1CCCCC1 (stereo not drawn) [Compound 17], the inhibition in vivo at 100 mg/kg [1, 3] is reported as 45.3%, the inhibition in vivo at 100 mg/kg [1, 4] is reported as 46.5% and the LD50 at 72 h [2] is reported as > 3000 mg/kg.
With CCOC(=O)C(Oc1ccc(C(C)(C)c2ccccc2)cc1)C1CCCCC1 (stereo not drawn) [Compound 9] the inhibition in vivo at 100 mg/kg [1, 3] was 40.3%, the inhibition in vivo at 100 mg/kg [1, 4] was 28.1% and the LD50 at 72 h [2] was > 3000 mg/kg.
In the case of CCOC(=O)C(Oc1ccc(Cl)cc1)C1CCCCC1 (stereo not drawn) [Compound 3], the inhibition in vivo at 100 mg/kg [1, 3] is reported as 43.3%, the inhibition in vivo at 100 mg/kg [1, 4] is reported as 31.5% and the LD50 at 72 h [2] is reported as > 3000 mg/kg.
For CCOC(=O)C(Oc1cccc(C(C)=O)c1)C1CCCCC1 (stereo not drawn) [Compound 12], the inhibition in vivo at 100 mg/kg [1, 3] was 14.3%, the inhibition in vivo at 100 mg/kg [1, 4] was 11.5% and the LD50 at 72 h [2] was > 3000 mg/kg.
With CCOC(=O)C(Oc1ccc(C(C)=O)cc1)C1CCCCC1 (stereo not drawn) [Compound 11] the inhibition in vivo at 100 mg/kg [1, 3] was 31.8%, the inhibition in vivo at 100 mg/kg [1, 4] was 30.9% and the LD50 at 72 h [2] was > 3000 mg/kg.
For CCOC(=O)C(Oc1ccc(-c2ccc(Cl)cc2)cc1)C1CCCCC1 (stereo not drawn) [Compound 18], the inhibition in vivo at 100 mg/kg [1, 3] was 43.7%, the inhibition in vivo at 100 mg/kg [1, 4] was 40.5% and the LD50 at 72 h [2] was > 3000 mg/kg.
With CCOC(=O)C(Oc1ccc(C2CCCCC2)cc1)C1CCCCC1 (stereo not drawn) [Compound 7, Ethyl α-(p-cyclohexylphenoxy)α-cyclohexylacetate] the inhibition in vivo at 100 mg/kg [1, 3] was 42.6%, the inhibition in vivo at 100 mg/kg [1, 4] was 51.6% and the LD50 at 72 h [2] was > 3000 mg/kg.
